Key:
LCMV = assay: microbe, parasite or virus in culture; format: cell-based, lymphocytic choriomeningitis virus; conditions: Mammarenavirus choriomeningitidis, KB, read-out: EC50 (nM) Mean (SD) LCMV
TPMV = assay: microbe, parasite or virus in culture; format: cell-based; conditions: Thottapalayam virus, HEK-293T, read-out: EC50 (nM) Mean (SD) TPMV
LCMV nucleoprotein = format: cell-based, lymphocytic choriomeningitis virus
LCMV WE strain = conditions: mouse, in vivo
LCMV Armstrong strain = format: cell-based, lymphocytic choriomeningitis virus

Row | Compound | EC50 (LCMV) [nM] | EC50 (TPMV) [nM] | LCMV nucleoprotein production (immunofluorescence) (LCMV nucleoprotein) | survival rate (LCMV WE strain) [%] | inflammatory foci in liver (pathology) (LCMV WE strain; 30 mg/kg) | serum IFN-γ levels (LCMV WE strain; 30 mg/kg) | serum TNF-α levels (LCMV WE strain; 30 mg/kg) | viral antigen in liver (IHC) (LCMV WE strain; 30 mg/kg) | infectious viral particles in culture supernatants, pretreatment (LCMV Armstrong strain) | viral propagation, posttreatment (LCMV Armstrong strain) | viral titers in supernatants, pretreatment (LCMV Armstrong strain)
1 | O=C1c2c(O)c(=O)ccn2N([C@@H]2c3ccccc3SCc3c2ccc(F)c3F)[C@@H]2COCCN12 [BXA, baloxavir acid] | > 1000 | > 1000 |  |  |  |  |  |  |  |  | 
2 | NC(=O)c1ncn([C@@H]2O[C@H](CO)[C@@H](O)[C@H]2O)n1 [RBV, Ribavirin] |  |  | inhibited only at 1,000 nM | 20 | inflammatory foci were observed | equivalent level to the vehicle-treated mice | higher than that in compound B–treated mice | viral antigens were detected in hepatocytes | decreased infectious viral particles | significantly reduced viral propagation | increased
